Results on one molecule are retold here after patent US10226452B2, “Benzoxazolone derivatives as acid ceramidase inhibitors, and their use as medicaments” (FONDAZIONE ISTITUTO ITALIANO DI TECNOLOGIA, priority 2014, dated 2019).

For one assay, the target named is cathepsin D (h) (Homo sapiens (Human), UniProt P07339). The assay can be described thus: Cerep enzyme inhibition screen: cathepsin D. It is filed as biochemical. To be noted: mean of two determinations, read-out: Inhibitory activity (% Inh. at 10 μM), mean. An excerpt:
(§1) Compound of Example 25 falling in both Formula (I) and (Ia) was selected to be tested for off-target effects on a set of enzymes that include proteases (aspartic, cysteine, and serine), cyclooxygenases as well as lipoxygenases and group IV phospholipase (sPLA2) (Table 3). [table]

Another assay deals with caspase-8 (h) (Homo sapiens (Human), UniProt Q14790). The assay can be described thus: Cerep enzyme inhibition screen: caspase-8. Type of assay: biochemical. The settings on record: mean of two determinations, read-out: Inhibitory activity (% Inh. at 10 μM), mean.
From the text: as §1

The target of the next assay is AC (Homo sapiens (Human), UniProt Q13510). Put plainly: AC activity in SW403 human colon adenocarcinoma cells. It is filed as cell-based. The procedure:
(A) Intact cells were treated with compound of Example 25 (0.1-20 μM) or vehicle and AC activity was measured 3 hours later in cell lysates. (B-E) Intact cells were exposed to compound of Example 25 (0.1-20 μM) for 3 hours and sphingosine/sphinganine (B), dihydroceramides (C), medium chain ceramides (D), long chain ceramides (E) were quantified. Results are expressed as mean±s.e.m. (n=3). *p<0.05, **p<0.01, ***p<0.001 vs vehicle, two-way ANOVA followed by Dunnet.
(A) Intact cells were treated with compound of Example 25 (20 μM) or vehicle and AC activity was measured 1 to 48 hours later in cell lysates. (B-E) Intact cells were exposed to compound of Example 25 (20 μM) and sphingosine (B), C16:0 dihydroceramide (C), C16:0 ceramide (D) were quantified. Results are expressed as mean±s.e.m. (n=3). *p<0.05, **p<0.01, ***p<0.001 vs vehicle, two-way ANOVA followed by Dunnet.
hAC protein preparation (10 μg) was preincubated with inhibitors (final DMSO concentration 1%) in assay buffer (100 mM sodium phosphate, 0.1% Nonidet P-40, 150 mM NaCl, 3 mM DTT, 100 mM sodium citrate, pH 4.5) for 30 min at 37° C. Reactions were started by the addition of 50 μM N-lauroyl ceramide (Nu-Chek Prep, Elysian, Minn.) and carried on for 30 min at 37° C. Reactions were stopped by addition of a mixture of chloroform/methanol (2:1, vol/vol) containing 1 nmol 11-lauroleic acid (NuChek Prep). The organic phases were collected, dried under nitrogen and analyzed by UPLC/MS (Acquity, Waters). In the negative-ion mode monitoring the reaction product (lauric acid, m/z=199) using 11-lauroleic acid as internal standard. […]
The [M−H]^− ion was monitored in the selected-ion monitoring mode (m/z values: lauric acid 199, 11-lauroleic acid 197.35). […] Inhibition of AC activity was calculated as reduction of lauric acid in the samples compared to vehicle controls. IC50 values were calculated by non-linear regression analysis of log [concentration]/inhibition curves using GraphPad Prism 5 (GraphPad Software Inc., CA—USA) applying a standard slope curve fitting.

A further assay concerns MAG levels. The assay can be described thus: MAG levels in mouse tissues. Type of assay: in vivo. To be noted: mice; 10 mg-kg-1 intraperitoneal; after 3 hours. The procedure:
Specifically, the levels of MAGs were quantified after 3 hours after intraperitoneal injection of compound of Example 25 (10 mg-kg-1). Specifically, levels of 16:0 MAG, 18:0 MAG, 18:1 MAG, 22:4 MAG, 22:6 MAG were measured in the brain (a); levels of 16:0 MAG, 18:0 MAG, 18:1 MAG, 22:4 MAG were measured in the liver (b), in fat (c) and in the heart (d). Results are expressed as mean±s.e.m. (n=5).
We homogenized tissue samples (20-30 mg) in methanol (1 mL) containing deuterium-labeled 2-AG (500 pmol) as internal standard (Cayman, Ann Arbor, Mich.). We extracted lipids with chloroform (2 mL) and water (1 mL). The organic phases were dried in a stream of N2, reconstituted in chloroform (2 mL) and fractionated by open-bed silica gel column chromatography as described. The eluded fraction containing 2-AG and anandamide were dried under N2, and residues were suspended in chloroform/methanol (1:3, vol:vol; 100 μL). Analyses were conducted using a liquid chromatography mass spectrometry (LC-MS) apparatus consisting of an Agilent 1100 system and 1946D mass spectrometer detector equipped with ESI interface (Agilent Technologies, Santa Clara, Calif., USA).

Where [1] appears, read: 20 μM, AC activity and sphingolipid levels.

Sequence of AC (Q13510 22-142): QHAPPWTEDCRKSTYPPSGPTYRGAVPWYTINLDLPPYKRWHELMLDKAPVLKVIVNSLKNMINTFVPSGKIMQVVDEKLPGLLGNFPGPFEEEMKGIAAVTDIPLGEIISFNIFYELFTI
Sequence of AC (Q13510 143-395): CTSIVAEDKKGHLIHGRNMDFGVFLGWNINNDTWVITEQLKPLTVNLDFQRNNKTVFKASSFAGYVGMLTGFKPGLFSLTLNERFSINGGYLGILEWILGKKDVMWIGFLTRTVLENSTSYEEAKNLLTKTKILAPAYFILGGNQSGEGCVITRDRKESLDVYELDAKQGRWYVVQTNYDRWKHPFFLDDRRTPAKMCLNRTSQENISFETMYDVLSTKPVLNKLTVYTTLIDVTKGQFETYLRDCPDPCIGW
Sequence of cathepsin D (h) (P07339 65-412): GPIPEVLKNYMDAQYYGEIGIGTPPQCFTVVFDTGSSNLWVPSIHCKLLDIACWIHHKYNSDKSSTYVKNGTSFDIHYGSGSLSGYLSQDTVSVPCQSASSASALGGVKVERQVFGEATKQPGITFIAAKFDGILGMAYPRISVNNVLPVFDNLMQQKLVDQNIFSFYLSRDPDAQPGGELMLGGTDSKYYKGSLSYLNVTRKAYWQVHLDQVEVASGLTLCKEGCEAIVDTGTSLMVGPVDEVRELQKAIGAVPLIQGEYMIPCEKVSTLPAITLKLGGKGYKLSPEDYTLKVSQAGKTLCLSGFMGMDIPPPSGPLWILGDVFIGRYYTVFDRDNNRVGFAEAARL
Sequence of caspase-8 (h) (Q14790 217-374): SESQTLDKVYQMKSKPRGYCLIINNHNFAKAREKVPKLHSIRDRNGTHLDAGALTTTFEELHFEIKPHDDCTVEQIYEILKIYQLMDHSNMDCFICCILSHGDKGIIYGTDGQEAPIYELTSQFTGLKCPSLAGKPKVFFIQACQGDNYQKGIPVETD
Sequence of caspase-8 (h) (Q14790 385-479): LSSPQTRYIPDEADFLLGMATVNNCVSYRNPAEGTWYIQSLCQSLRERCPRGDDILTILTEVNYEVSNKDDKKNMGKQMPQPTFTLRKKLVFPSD

Consider `O=C(NCCCCc1ccccc1)n1c(=O)oc2cc(-c3ccc(F)cc3)ccc21` [Example 25, 6-(4-Fluorophenyl)-2-oxo-N-(4-phenylbutyl)-1,3-benzoxazole-3-carboxamide], for which the inhibition at 10 µM at cathepsin D (h) was determined as 67%. Moreover, the inhibition at 10 µM at caspase-8 (h) is -0.9%. For the same molecule, at AC (setting [1]), the “duration of effects (timecourse)” value is at least 6 h and the “onset of significant effects (timecourse)” value is at most 1 h. Moreover, the AC activity entry at AC (0.1-20 μM, 3 hours) is reported as “concentration dependent reduction in AC activity”. The “levels of the most representative MAGs in brain, liver, fat and heart” value with MAG levels was “remained unchanged”.
